Test results reported in patent US6620828B2, “Thiazole compounds and pharmaceutical compositions for inhibiting protein kinases and methods for their use” (Agouron Pharmaceuticals, Inc., priority 1999, dated 2003).
Several values for one entry are separate records, joined by “and”; a condition that tells them apart may be missing. Equal entries are not always repeated.

How the values were obtained:
[1] = system: lung cancer cells (line MV522); test: Cancer cell proliferation (MV522) assay; format: cell-based; details: MV522, Table 1
Method: Cancer Cell Proliferation (MV522) Assay
The protocol for assessing cellular proliferation in cancer cells is similar to that used for assessments in HUVEC cells. Two thousand lung cancer cells (line MV522, acquired from American Tissue Cultural Collection) were seeded in growth media (RPMI1640 medium supplemented with 2 mM glutamine and 10% FBS). Cells are allowed to attach for 1 day prior to addition of test agents and/or vehicles. Cells are treated simultaneously with the same test agents used in the HUVEC assay. Cellular proliferation is quantified by MTT dye reduction assay 72 hours after exposure to test agents. The total length of the assay is 4 days vs. 5 for HUVEC cells because MV522 cells are not exposed to starvation medium.

[2] = biological target: T1, phosphorylated VEGF-R2Δ50 (FLVK-P) (Homo sapiens, UniProt P35968, DEL940-989/E990V); test: VEGF-R2 coupled spectrophotometric (FLVK-P) assay; format: biochemical; details: Table 1; for Ki: spectrophotometric assay
T1 construct: VEGF-R2Δ50 contains residues 806-939 and 990-1171; made in house; host or cells: baculovirus/insect cells
T1 sequence (P35968 with tags, fused parts or gaps DEL940-989/E990V limits assumed): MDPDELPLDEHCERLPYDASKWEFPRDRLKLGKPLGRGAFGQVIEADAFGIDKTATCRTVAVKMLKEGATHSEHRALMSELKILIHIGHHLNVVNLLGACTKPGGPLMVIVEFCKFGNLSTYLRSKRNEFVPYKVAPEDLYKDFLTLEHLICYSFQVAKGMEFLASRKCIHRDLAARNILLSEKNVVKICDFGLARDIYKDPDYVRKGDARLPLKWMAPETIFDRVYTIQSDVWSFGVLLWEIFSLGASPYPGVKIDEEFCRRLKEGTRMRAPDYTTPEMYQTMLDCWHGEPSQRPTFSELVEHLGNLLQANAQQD
Summary of the method: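 Baculovirus-expressed human VEGF-R2Δ50 (residues 806-939/990-1171, E990V) was autophosphorylated with 3 mM ATP, 40 mM MgCl2 for 2 h at 4° C. ADP formation was coupled via PK/LDH to NADH oxidation, read at 340 nm, with 5.1 mM poly(E4Y1), 1 mM ATP, 25 mM MgCl2, Hepes pH 7.5. Ki came from activity across compound concentrations.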

[3] = biological target: T2, unphosphorylated VEGF-R2Δ50 (FLVK) (Homo sapiens, UniProt P35968, DEL940-989/E990V); test: VEGF-R2 coupled spectrophotometric assay, unphosphorylated enzyme (FLVK); format: biochemical; details: Table 1
T2 construct: VEGF-R2Δ50 contains residues 806-939 and 990-1171; made in house; host or cells: baculovirus/insect cells
T2 sequence (P35968 with tags, fused parts or gaps DEL940-989/E990V limits assumed): as above
Summary of the method: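 Unphosphorylated VEGF-R2Δ50 (5 to 40 nM) with 20 mM poly(E4Y1), 3 mM ATP, 60 mM MgCl2, 2 mM MnCl2 in 200 mM Hepes pH 7.5. ADP production coupled via PK/LDH to NADH oxidation, read at 340 nm. Ki from activity at varying compound concentrations.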

[4] = system: human umbilical vein endothelial cells (HUVEC); test: HUVEC proliferation assay; format: cell-based; details: Homo sapiens, HUVEC, Table 1
Summary of the method: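 Exponentially growing HUVEC were serum-starved 24 h (F12K + 1% FBS), pre-treated 1 h with compound (0.1% DMSO final), then stimulated with 6 ng/ml VEGF. Proliferation was read 72 h later by MTT reduction (A595). IC50 came from seven 0.5-log concentrations in triplicate; screens gave % inhibition relative to VEGF-only and starved wells.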

CHK1 = biological target: T3, CHK1 (Homo sapiens, UniProt O14757); test: CHK1 high-throughput screening; format: biochemical; details: for inhibition at 20 µM: read-out: % inhibition @ 20 μM, Table 4, repeated entries per example; for % inhibition @ 20 μM: Table 4, repeated entries per example
T3 sequence (O14757 1-476): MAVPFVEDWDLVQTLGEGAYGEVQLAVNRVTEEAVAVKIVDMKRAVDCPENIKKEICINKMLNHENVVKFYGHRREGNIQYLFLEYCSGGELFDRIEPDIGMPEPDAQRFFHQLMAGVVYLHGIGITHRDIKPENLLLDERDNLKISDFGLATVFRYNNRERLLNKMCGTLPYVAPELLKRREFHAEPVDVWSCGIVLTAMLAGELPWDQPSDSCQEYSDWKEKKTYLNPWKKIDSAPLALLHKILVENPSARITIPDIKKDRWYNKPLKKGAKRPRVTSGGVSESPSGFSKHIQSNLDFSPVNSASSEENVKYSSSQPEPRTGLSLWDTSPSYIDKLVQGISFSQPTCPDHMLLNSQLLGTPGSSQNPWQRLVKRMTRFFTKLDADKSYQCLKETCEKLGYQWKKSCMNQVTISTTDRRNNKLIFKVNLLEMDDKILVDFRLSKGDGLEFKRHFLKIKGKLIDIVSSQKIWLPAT

CDK4/Cyclin D3 complex = biological target: T4, CDK4/Cyclin D3 complex (Homo sapiens, UniProt P11802); test: CDK4/Cyclin D assay; format: biochemical; details: Table 2
T4 construct: made in house; host or cells: insect cells co-infected with baculovirus vectors
T4 sequence (P11802 whole entry): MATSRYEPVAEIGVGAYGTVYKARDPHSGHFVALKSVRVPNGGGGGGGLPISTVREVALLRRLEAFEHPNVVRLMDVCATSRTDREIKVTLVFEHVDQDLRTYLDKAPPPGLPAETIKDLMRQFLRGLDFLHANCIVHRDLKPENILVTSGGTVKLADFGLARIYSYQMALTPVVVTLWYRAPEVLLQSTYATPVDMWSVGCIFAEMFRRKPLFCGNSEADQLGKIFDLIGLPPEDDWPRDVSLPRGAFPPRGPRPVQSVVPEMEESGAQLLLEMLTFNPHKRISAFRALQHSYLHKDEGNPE
T4 sequence (P30281 whole entry partner): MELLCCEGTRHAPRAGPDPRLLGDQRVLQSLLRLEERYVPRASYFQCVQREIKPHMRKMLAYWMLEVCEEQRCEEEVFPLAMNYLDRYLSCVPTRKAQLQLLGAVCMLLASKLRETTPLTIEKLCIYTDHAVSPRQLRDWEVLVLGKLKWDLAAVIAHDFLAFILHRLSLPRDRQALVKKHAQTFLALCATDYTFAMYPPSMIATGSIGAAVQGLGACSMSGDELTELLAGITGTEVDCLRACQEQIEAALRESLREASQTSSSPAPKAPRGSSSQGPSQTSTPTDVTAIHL
Summary of the method: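 Insect-cell-expressed CDK4/cyclin D3 (50 nM) phosphorylating His-tagged Rb fragment (residues 386-928) with 25 μM [^32P]ATP in HEPES pH 7.4, MgCl2, 2% DMSO; 20 min at 30 °C, EDTA stop. Filter-captured 32P by phosphorimager; apparent Ki from competitive or tight-binding inhibition fits.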

CDK2/Cyclin A complex = CDK2/Cyclin A complex (Homo sapiens, UniProt P24941); test: CDK2/Cyclin A assay; format: biochemical; details: Table 2
Summary of the method: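 Radiometric assay: 150 nM CDK2/cyclin A (insect-cell CDK2, truncated cyclin A) phosphorylates His-tagged Rb fragment (residues 386-928) with 25 μM ATP plus [32P]ATP, pH 7.4 HEPES, 2% DMSO, 30 °C for 20 min. Filter-captured product counted by phosphorimager; apparent Ki from competitive or tight-binding inhibition fits.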

Structure (SMILES)	IC50 [1] [nM]	Ki [2] [nM]	Ki [3] [nM]	inhibition at 20 µM (CHK1) [%]	IC50 [4] [nM]	also measured
Cc1cc(C)cc(Nc2nc(N)c(-c3nc(-c4cccc(NC(=O)c5ccccc5)c4)cs3)s2)c1 [A(42), N-{3-[4′-Amino-2′-(3,5-dimethylphenylamino)-[2,5′]bithiazolyl-4-yl]-phenyl}-benzamide]		7.3		-0.1		
CSc1cccc(Nc2nc(N)c(-c3nc(-c4cccc(NC(=O)c5ccccc5)c4)cs3)s2)c1 [A(46), N-{3-[4′-Amino-2′-(3-methylsulfanyl-phenylamino)-[2,5′]bithiazolyl-4-yl]-phenyl}-benzamide]				0.9		
COc1cc(Nc2nc(N)c(-c3nc(-c4cccc(C(=O)NCc5ccccc5)c4)cs3)s2)cc(OC)c1OC [A(32), 3-[4′-Amino-2′-(3,4,5-trimethoxy-phenylamino)-[2,5′]bithiazolyl-4-yl]-N-benzyl-benzamide]				-3.8		
COc1cc(Nc2nc(N)c(-c3nc(-c4cccc(C(=O)NCCc5ccccc5)c4)cs3)s2)cc(OC)c1OC [A(31), 3-[4′-Amino-2′-(3,4,5-trimethoxy-phenylamino)-[2,5′]bithiazolyl-4-yl]-N-phenethyl-benzamide]				2.5		
Nc1nc(Nc2ccc([N+](=O)[O-])cc2)sc1-c1nc(-c2cccc(NC(=O)c3ccccc3)c2)cs1 [A(56), 4-(4′-Amino-4-(3-benzamidophenyl)-[2,5′]bithiazolyl-2′-ylamino)-nitrophenyl]		84		-2.9		
COc1ccc(Nc2nc(N)c(-c3nc(-c4cccc(NC(=O)c5ccccc5)c4)cs3)s2)cc1 [A(52), 4-(4′-Amino-4-(3-benzamidophenyl)-[2,5′]bithiazolyl-2′-ylamino)-methoxyphenyl]				2		
COC(=O)c1cccc(Nc2nc(N)c(-c3nc(-c4cccc(NC(=O)c5ccccc5)c4)cs3)s2)c1 [A(39), 3-[4′-Amino-4-(3-benzoylaminophenyl)-[2,5′]bithiazolyl-2′-ylamino]-benzoic acid methyl ester]				2.2		
Nc1nc(Nc2ccc3c(c2)CCC3)sc1-c1nc(-c2cccc(NC(=O)c3ccccc3)c2)cs1 [A(43)]				-3		
Nc1nc(Nc2ccc(S(=O)(=O)N3CCCCC3)cc2)sc1-c1nc(-c2cccc(NC(=O)c3ccccc3)c2)cs1 [A(55), 4-(4′-Amino-4-(3-benzamidophenyl)-[2,5′]bithiazolyl-2′-ylamino)-phenylsulfonylpiperidine]				0.1		
Nc1nc(Nc2ccc3c(c2)OCO3)sc1-c1nc(-c2cccc(NC(=O)c3ccccc3)c2)cs1 [A(41), N-{3-[4′-Amino-2′-(benzo[1,3]dioxol-5-ylamino)-[2,5′]bithiazolyl-4-yl]-phenyl}-benzamide]				3.8		
Nc1nc(NCCc2ccccc2)sc1-c1nc(-c2cccc(NC(=O)c3ccccc3)c2)cs1 [A(38), N-[3-(4′-Amino-2′-phenethylamino-[2,5′]bithiazolyl-4-yl)-phenyl]-benzamide]				9.1		FLVK-P % inhibition @ 0.05 ([2]; at 0.05, concentration unit not printed (head nM)): 7% @; % inhibition @ 20 μM (CHK1): 9.8%
CCN(CC)CCCNc1nc(N)c(-c2nc(-c3cccc(NC(=O)c4ccccc4)c3)cs2)s1 [A(37), N-{3-[4′-Amino-2′-(3-diethylamino-propylamino)-[2,5′]bithiazolyl-4-yl]-phenyl}-benzamide]				16		

Now from value to compound, other results behind:

IC50 [1] [nM]	Ki [2] [nM]	Ki [3] [nM]	inhibition at 20 µM (CHK1) [%]	Structure (SMILES)	IC50 [4] [nM]	also measured
> 10000	1.8	2		COc1cc(Nc2nc(N)c(-c3nc(-c4cccc(NC(=O)c5ccccc5)c4)cs3)s2)cc(OC)c1OC [D(24), N-{3-[4′-Amino-2′-(3,4,5-trimethoxy-phenylamino)-[2,5′]bithiazolyl-4-yl]-phenyl}-benzamide]	110	
			4.8	Nc1nc(Nc2ccc(S(N)(=O)=O)cc2)sc1-c1nc(-c2ccc(Cl)c(O)c2)cs1 [A(69), 4-[4′-Amino-4-(4-chloro-3-hydroxy-phenyl)-[2,5′]bithiazolyl-2′-ylamino]-benzenesulfonamide]		Ki (CDK4/Cyclin D3 complex): 7200 nM; Ki (CDK2/Cyclin A complex): 4000 nM; % inhibition @ 20 μM (CHK1): 2.7% and 3.8%
> 10000	1.1	0.34		COc1cc(Nc2nc(N)c(-c3nc(-c4cccc(NC(=O)c5cccc(C)c5)c4)no3)s2)cc(OC)c1OC [D(47), 3-[3-(3-Methylbenzamido)phenyl]-5-[2-[(3,4,5-trimethoxyphenyl)amino]-4-amino-5-thiazolyl]-1,2,4-oxadiazole]	13	
			-7.2	CC(=O)c1ccc(Nc2nc(N)c(-c3nc(-c4cccc(NC(=O)c5ccccc5)c4)cs3)s2)cc1 [A(58), 4-(4′-Amino-4-(3-benzamidophenyl)-[2,5′]bithiazolyl-2′-ylamino)-acetophenone]		
> 10000	3.8	3.6		COc1cc(Nc2nc(N)c(-c3nc(-c4cccc(NC(=O)c5sc(C)nc5C)c4)cs3)s2)cc(OC)c1OC [D(33), 2,4-Dimethyl-thiazole-5-carboxylic acid {3-[4′-amino-2′-(3,4,5-trimethoxy-phenylamino)-[2,5′]bithiazolyl-4-yl]-phenyl}-amide]	120	
> 10000	2	2.6		COc1cc(Nc2nc(N)c(-c3nc(-c4cccc(NC(=O)OCc5ccccc5)c4)cs3)s2)cc(OC)c1OC [D(12), {3-[4′-Amino-2′-(3,4,5-trimethoxy-phenylamino)-[2,5′]bithiazolyl-4-yl]-phenyl}-carbamic acid benzyl ester]	160	
> 10000	1.1	1.4		COc1cc(Nc2nc(N)c(-c3nc(-c4cccc(NC(=O)c5cccc(Cl)c5)c4)cs3)s2)cc(OC)c1OC [D(40), N-{3-[4′-Amino-2′-(3,4,5-trimethoxy-phenylamino)-[2,5′]bithiazolyl-4-yl]-phenyl}-3-chloro-benzamide]	39	
> 10000	5.4	2.1		COc1cc(Nc2nc(N)c(-c3nc(-c4cccc(NC(=O)OCc5ccccc5)c4)no3)s2)cc(OC)c1OC [D(44), 3-[3-Benzyloxycarboxy-aminophenyl]-5-[2-[(3,4,5-trimethoxyphenyl)amino]-4-amino-5-thiazolyl]-1,2,4-oxadiazole]	373	
> 10000	0.34	0.77		COc1cc(Nc2nc(N)c(-c3nc(-c4cccc(NC(=O)c5ncc(C)s5)c4)cs3)s2)cc(OC)c1OC [D(42), 5-Methyl-thiazole-2-carboxylic acid {3-[4′-amino-2′-(3,4,5-trimethoxy-phenylamino)-[2,5′]bithiazolyl-4-yl]-phenyl}-amide]	53	
			3.8	Nc1nc(Nc2ccc(S(N)(=O)=O)cc2)sc1-c1nc(-c2ccc(-c3ccccc3)cc2)cs1 [A(70), 4-(4′-Amino-4-biphenyl-4-yl-[2,5′]bithiazolyl-2′-ylamino)-benzenesulfonamide]		inhibition at 100 µM (CDK4/Cyclin D3 complex; at 100 (printed 100 or 100 μM)): < 0%
